Molecular target: T1, human PAH with the R408W mutation (Homo sapiens, UniProt P00439, R408W)
T1 construct: expressed in transfected cells
T1 sequence (P00439 1-452 R408W): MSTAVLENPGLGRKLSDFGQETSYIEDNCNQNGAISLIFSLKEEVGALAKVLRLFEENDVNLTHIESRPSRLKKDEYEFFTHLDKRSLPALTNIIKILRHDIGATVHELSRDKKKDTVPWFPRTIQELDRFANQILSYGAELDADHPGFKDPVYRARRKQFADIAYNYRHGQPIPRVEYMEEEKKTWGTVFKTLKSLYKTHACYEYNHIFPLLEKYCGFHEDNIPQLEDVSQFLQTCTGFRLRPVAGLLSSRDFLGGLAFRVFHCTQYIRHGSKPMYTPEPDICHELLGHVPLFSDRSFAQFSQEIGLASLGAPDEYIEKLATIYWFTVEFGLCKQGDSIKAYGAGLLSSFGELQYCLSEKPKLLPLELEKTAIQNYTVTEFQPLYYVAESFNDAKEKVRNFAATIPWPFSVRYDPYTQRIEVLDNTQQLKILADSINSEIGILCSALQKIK
Experiment: Cell Based Phenylalanine Flux Assay
Set-up: scale not given here
Conditions: A375 R408W cells, 24 hrs with compound, then 20 μM sepiapterin and 800 μM 13C9,15N-Phenylalanine for 4 hours; 13C-Tyrosine by LC-MS; average where tested multiple times

Row | SMILES | AC50
1 | Cc1nc(C(F)(F)F)c(C(=O)N2CCc3nc[nH]c3[C@@H]2c2cn3ccccc3n2)o1 (single isomer, unassigned) | E, E
2 | Cc1nc(C(F)(F)F)c(C(=O)N2CCc3nc[nH]c3[C@H]2c2cn3ccccc3n2)o1 (single isomer, unassigned) | E, E
3 | Cn1ccc(-c2nc(C(F)F)c(C(=O)N3CCc4[nH]cnc4[C@H]3c3ncc4ccccc4n3)o2)n1 (single isomer, unassigned) | E, E
4 | Cc1ncoc1C(=O)N1C[C@@H](C)c2[nH]cnc2[C@@H]1c1cc2ccccc2cn1 (single isomer, unassigned) | E, E
5 | C[C@H]1CN(C(=O)c2ocnc2C(F)(F)F)[C@@H](c2cc3ccccc3cn2)c2nc[nH]c21 (single isomer, unassigned) | E, E

Same assay, conditions: A375 R408W cells, 24 hrs with compound, then 20 μM sepiapterin and 800 μM 13C9,15N-Phenylalanine for 4 hours; 13C-Tyrosine by LC-MS; average where tested multiple times; read-out: AC50

Row | SMILES | AC50
6 | O=C(C1CN(c2ccccn2)C1)N1CCc2[nH]cnc2C1c1cc2ccccc2cn1 (single isomer, unassigned) | 1 to 5 µM
7 | CC(C)(O)c1ccc2c(C(=O)N3CCc4[nH]cnc4[C@H]3c3cc4ccccc4cn3)cnn2c1 (single isomer, unassigned) | 1 to 5 µM
8 | COCc1ncc(C(=O)N2CCc3[nH]cnc3[C@@H]2c2ccc3ccccc3n2)o1 (single isomer, unassigned) | 1 to 5 µM
9 | COCc1ncc(C(=O)N2CCc3[nH]cnc3[C@@H]2c2ccc3ccccc3n2)s1 (single isomer, unassigned) | 1 to 5 µM
10 | CC(C)(O)c1ncc(C(=O)N2CCc3[nH]cnc3[C@H]2c2cn3ccccc3n2)o1 (single isomer, unassigned) | > 5 µM
11 | CC(C)(O)c1ncc(C(=O)N2CCc3[nH]cnc3C2c2cc3ccccc3cn2)o1 (single isomer, unassigned) | 1 to 5 µM
12 | Cc1nc(C(C)(C)O)oc1C(=O)N1CCc2[nH]cnc2[C@H]1c1cc2ccccc2cn1 (single isomer, unassigned) | 1 to 5 µM
13 | O=C(c1cnc(-c2ccccn2)o1)N1CCc2[nH]cnc2[C@@H]1c1cc2ccccc2nn1 (single isomer, unassigned) | > 5 µM
14 | COCc1ncc(C(=O)N2CCc3[nH]cnc3[C@H]2c2cn3ccccc3n2)s1 (single isomer, unassigned) | > 5 µM
15 | O=C(Cc1coc(C(F)F)n1)N1CCc2nc[nH]c2[C@H]1c1cn2ccccc2n1 (single isomer, unassigned) | > 5 µM
16 | O=C(c1oc(-c2ccccn2)nc1C1CC1)N1CCc2nc[nH]c2[C@H]1c1cn2ccccc2n1 (single isomer, unassigned) | > 5 µM
17 | FC(F)c1nnc(N2CCc3[nH]cnc3[C@H]2c2ccc3ccccc3n2)o1 (single isomer, unassigned) | > 5 µM
18 | Cc1nc(N(C)C)oc1C(=O)N1CCc2[nH]cnc2[C@H]1c1ccc2ccccc2n1 (single isomer, unassigned) | > 5 µM
19 | C[C@@H](O)c1nnc(C(=O)N2CCc3[nH]cnc3[C@H]2c2cc3ccccc3nn2)o1 (single isomer, unassigned) | > 5 µM
20 | C[C@H](O)c1nnc(C(=O)N2CCc3[nH]cnc3[C@H]2c2cc3ccccc3nn2)o1 (single isomer, unassigned) | 1 to 5 µM
21 | Cc1ncoc1C(=O)N1CC2(CC2)c2[nH]cnc2[C@H]1c1ccc2ccccc2n1 (single isomer, unassigned) | > 5 µM
22 | COCCNc1nnc(C(=O)N2C[C@@H](C)c3[nH]cnc3[C@H]2c2cc3ccccc3cn2)o1 (single isomer, unassigned) | > 5 µM
23 | C[C@H]1CN(C(=O)c2nnc(N3CC(F)C3)o2)[C@H](c2cc3ccccc3cn2)c2nc[nH]c21 (single isomer, unassigned) | 1 to 5 µM
24 | C[C@H]1CN(c2nnc(-c3ccccn3)o2)[C@@H](c2cc3ccccc3cn2)c2nc[nH]c21 (single isomer, unassigned) | > 5 µM
25 | CC1CN(C(=O)c2nnc(NC3CC3)o2)C(c2cc3ccccc3cn2)c2nc[nH]c21 (single isomer, unassigned) | > 5 µM

Same assay, conditions: A375 cells expressing human R408W PAH; 24 hrs compound incubation; 13C-Tyrosine by LC-MS; average where tested multiple times; read-out: AC50

Row | SMILES | AC50
26 | Cc1nc(C(C)(C)O)oc1C(=O)N1CCc2[nH]cnc2[C@@H]1c1ccc2ccccc2n1 (single isomer, unassigned) [Example 14] | > 5 µM
27 | O=C(c1nnc(-c2cnn(CC(F)(F)F)c2)o1)N1CCc2[nH]cnc2[C@H]1c1ccc2ccccc2n1 (single isomer, unassigned) [Example 67] | 0.5 to 1 µM
28 | O=C(c1nnc(-c2cnn(CC(F)(F)F)c2)o1)N1CCc2[nH]cnc2[C@@H]1c1ccc2ccccc2n1 (single isomer, unassigned) [Example 68] | > 5 µM
29 | CC(O)c1nc(Br)c(C(=O)N2CCc3[nH]cnc3[C@@H]2c2ccc3ccccc3n2)o1 (single isomer, unassigned) [Example 131] | 1 to 5 µM
30 | CC(O)c1nc(Br)c(C(=O)N2CCc3[nH]cnc3[C@@H]2c2ccc3ccccc3n2)o1 (single isomer, unassigned) [Example 132] | 1 to 5 µM
31 | CC(O)c1nc(Br)c(C(=O)N2CCc3[nH]cnc3[C@H]2c2ccc3ccccc3n2)o1 (single isomer, unassigned) [Example 133] | < 0.5 µM
32 | CC(O)c1nc(Br)c(C(=O)N2CCc3[nH]cnc3[C@H]2c2ccc3ccccc3n2)o1 (single isomer, unassigned) [Example 134] | < 0.5 µM
33 | CC(O)c1nc(Cl)c(C(=O)N2CCc3[nH]cnc3[C@@H]2c2ccc3ccccc3n2)o1 (single isomer, unassigned) [Example 135] | > 5 µM
34 | CC(O)c1nc(Cl)c(C(=O)N2CCc3[nH]cnc3[C@@H]2c2ccc3ccccc3n2)o1 (single isomer, unassigned) [Example 136] | 1 to 5 µM
35 | CC(O)c1nc(Cl)c(C(=O)N2CCc3[nH]cnc3[C@H]2c2ccc3ccccc3n2)o1 (single isomer, unassigned) [Example 137] | < 0.5 µM
36 | CC(O)c1nc(Cl)c(C(=O)N2CCc3[nH]cnc3[C@H]2c2ccc3ccccc3n2)o1 (single isomer, unassigned) [Example 138] | < 0.5 µM
37 | CC(F)(F)c1ncc(C(=O)N2CCc3[nH]cnc3[C@@H]2c2cn3ccccc3n2)s1 (single isomer, unassigned) [Example 235] | > 5 µM
38 | CC(F)(F)c1ncc(C(=O)N2CCc3[nH]cnc3[C@H]2c2cn3ccccc3n2)s1 (single isomer, unassigned) [Example 236] | 1 to 5 µM
39 | O=C(c1oc(-c2ccccn2)nc1C1CC1)N1CCCc2[nH]cnc2[C@H]1c1cc2ccccc2cn1 (single isomer, unassigned) [Example 379] | 1 to 5 µM
40 | O=C(c1oc(-c2ccccn2)nc1C1CC1)N1CCCc2[nH]cnc2[C@@H]1c1cc2ccccc2cn1 (single isomer, unassigned) [Example 380] | > 5 µM
41 | C[C@H]1CN(C(=O)c2nnc(-c3ccccn3)o2)[C@H](c2cc3ccccc3cn2)c2nc[nH]c21 (single isomer, unassigned) [Example 385] | 0.5 to 1 µM
42 | C[C@H]1CN(C(=O)c2nnc(-c3ccccn3)o2)[C@@H](c2cc3ccccc3cn2)c2nc[nH]c21 (single isomer, unassigned) [Example 386] | > 5 µM
43 | C[C@@H]1CN(C(=O)c2nnc(-c3ccccn3)o2)[C@H](c2cc3ccccc3cn2)c2nc[nH]c21 (single isomer, unassigned) [Example 388] | 0.5 to 1 µM
44 | O=C(c1cnc(-c2ccccn2)s1)N1CCc2[nH]cnc2C1c1ccc2ccccc2n1 (stereo in doubt) [Example 1, (R)-(2-(pyridin-2-yl)thiazol-5-yl)(4-(quinolin-2-yl)-6,7-dihydro-1H-imidazo[4,5-c]pyridin-5(4H)-yl)methanone] | < 0.5 µM
45 | O=C(c1cnc(-c2ccccn2)s1)N1CCc2[nH]cnc2C1c1ccc2ccccc2n1 (stereo in doubt) [Example 2, (S)-(2-(pyridin-2-yl)thiazol-5-yl)(4-(quinolin-2-yl)-6,7-dihydro-1H-imidazo[4,5-c]pyridin-5(4H)-yl)methanone] | 1 to 5 µM
46 | CC(C)(C)c1ncc(C(=O)N2CCc3[nH]cnc3C2c2ccc3ccccc3n2)s1 (stereo in doubt) [Example 3, (R)-(2-(tert-butyl)thiazol-5-yl)(4-(quinolin-2-yl)-6,7-dihydro-1H-imidazo[4,5-c]pyridin-5(4H)-yl)methanone] | < 0.5 µM
47 | CC(C)(C)c1ncc(C(=O)N2CCc3[nH]cnc3C2c2ccc3ccccc3n2)s1 (stereo in doubt) [Example 4, (S)-(2-(tert-butyl)thiazol-5-yl)(4-(quinolin-2-yl)-6,7-dihydro-1H-imidazo[4,5-c]pyridin-5(4H)-yl)methanone] | > 5 µM
48 | O=C(c1cncs1)N1CCc2[nH]cnc2C1c1ccc2ccccc2n1 (stereo in doubt) [Example 5, (R)-(4-(quinolin-2-yl)-6,7-dihydro-1H-imidazo[4,5-c]pyridin-5(4H)-yl)(thiazol-5-yl)methanone] | 0.5 to 1 µM
49 | O=C(c1cncs1)N1CCc2[nH]cnc2C1c1ccc2ccccc2n1 (stereo in doubt) [Example 6, (S)-(4-(quinolin-2-yl)-6,7-dihydro-1H-imidazo[4,5-c]pyridin-5(4H)-yl)(thiazol-5-yl)methanone] | > 5 µM
50 | Cc1nc(C(C)(C)C)oc1C(=O)N1CCc2[nH]cnc2C1c1ccc2ccccc2n1 (stereo in doubt) [Example 7, (R)-(2-(tert-butyl)-4-methyloxazol-5-yl)(4-(quinolin-2-yl)-6,7-dihydro-1H-imidazo[4,5-c]pyridin-5(4H)-yl)methanone] | 0.5 to 1 µM
